{
  "source": "patent US12304932B2",
  "about": "“PACAP stabilized peptide” (SENJU PHARMACEUTICAL CO., LTD., priority 2017, dated 2025)",
  "assay": "Peptide stability tests 2 and 3: Tris buffer pH 7.0, stored at 60° C., HPLC conditions 2",
  "assay_type": "physicochemical",
  "details": "Tris buffer pH 7.0, 60° C.; for survival rate after correction for water, 60° C., 1-week storage / survival rate after correction for water, 60° C., 2-week storage: 100 μM peptide; for survival rate after correction for water, 60° C., 2-week storage: 2 weeks",
  "experimental": "(§1) Peptides 1, 2 and 6 to 9 synthesized in Example 2 were weighed and dissolved in Tris buffer (pH 7.0) to prepare 1.0 mM peptide solutions. The solutions were filtered with a Chromatdisk (product of Merck Millipore, Millex-GV, 0.22 μm). Each filtrate was diluted to 100 μM with Tris buffer (pH 7.0) and dispensed into a tube (Protein LoBind Tube by Eppendorf Co.). The prepared peptide solutions were incubated for 1 week or 2 weeks in a 60° C. thermostatic bath to obtain stored samples. A simultaneously prepared sample among the peptide solutions that was not stored was used as a standard sample (initial sample). The standard sample and the stored samples were stored at −30° C. until sample analysis.\nEach stored sample was measured under the following HPLC analysis conditions 2, and the survival rate after correction for water for each peptide among the stored samples was calculated in the same manner as Example 3.\nColumn: XSelect CSH C18 by Waters Co., 5 μm, 4.6×250 mm\nGuard column: XSelect CSH C18 by Waters. Co., 5 μm, 4.6×20 mm Guard Cartridge\nDetection wavelength: 220 nm\nMobile phase A: 0.1% formic acid in water\nMobile phase B: 0.1% formic acid in acetonitrile\nMeasuring time: 20 minutes\nMeasuring sample injection rate: 50 μL\nColumn temperature: 40° C.\nMobile phase delivery: The mixing ratio of mobile phase A and mobile phase B was varied as shown in Table 5 for linear concentration gradient control.\nas §1, with “Peptides 12 to 25, 27” for “Peptides 1, 2”, “and 28” for “and 6 to 9”, “for one” for “for 1”\nThe survival rate after correction for water for each peptide among the stored samples was calculated in the same manner as Example 4, and the results are shown in Table 7.\nas §1, with “29” for “1, 2 and 6”, “34” for “9”, “for” for “for 1 week or”\nThe survival rate after correction for water for each peptide among the stored samples was calculated in the same manner as Example 4, and the results are shown in Table 7-2.",
  "note": "Numbered stars: 1 amine (or outer) side, 2 acyl side, 3 side chain; on linkers, the order of the positions; unused ones are H or OH. Square brackets hold non-standard residues; d marks the D form. Peptide text beside a SMILES is read from it. * marks the point of attachment. Ala(1H-tetrazol-5-yl) = N[C@@H](Cc1nnn[nH]1)C(=O)O; X1 = O=C([C@H](CCc1nnn[nH]1)N[*:1])[*:2]; Nle = CCCC[C@H](N)C(=O)O; Ms = CS(=O)(=O)*",
  "data": [
    {"smiles": "CC[C@H](C)[C@H](NC(=O)CNC(=O)[C@H](CC(=O)O)NC(=O)[C@H](CO)NC(=O)[C@H](Cc1cnc[nH]1)NC(C)=O)C(=O)N[C@@H](Cc1ccccc1)C(=O)N[C@H](C(=O)N[C@@H](CC(=O)O)C(=O)N[C@@H](CO)C(=O)N[C@@H](Cc1ccc(O)cc1)C(=O)N[C@@H](CO)C(=O)N[C@@H](CCCNC(=N)N)C(=O)N[C@@H](Cc1ccc(O)cc1)C(=O)N[C@@H](CCCNC(=N)N)C(=O)N[C@@H](CCCCN)C(=O)N[C@@H](CCC(N)=O)C(=O)N[C@@H](CCSC)C(=O)N[C@@H](C)C(=O)N[C@H](C(=O)N[C@@H](CCCCN)C(=O)N[C@@H](CCCCN)C(=O)N[C@@H](Cc1ccc(O)cc1)C(=O)N[C@@H](CC(C)C)C(=O)N[C@@H](C)C(=O)N[C@@H](C)C(=O)N[C@H](C(=O)N[C@@H](CC(C)C)C(N)=O)C(C)C)C(C)C)[C@@H](C)O", "note": "[Peptide 2, reference compound]", "values": [
      {"measurement": "survival rate after correction for water, 60° C., 1-week storage", "value": 28.7, "unit": "%"},
      {"measurement": "survival rate after correction for water, 60° C., 2-week storage", "value": 17.2, "unit": "%"},
      {"measurement": "stability in aqueous solution, in words", "value": "only equivalent stability"}
    ]},
    {"smiles": "CCCC[C@H](NC(=O)[C@H](CCC(N)=O)NC(=O)[C@H](CCCCN)NC(=O)[C@H](CCCNC(=N)N)NC(=O)[C@H](Cc1ccc(O)cc1)NC(=O)[C@H](CCCNC(=N)N)NC(=O)[C@H](CO)NC(=O)[C@H](Cc1ccc(O)cc1)NC(=O)[C@H](CO)NC(=O)[C@H](Cc1nnn[nH]1)NC(=O)[C@@H](NC(=O)[C@H](Cc1ccccc1)NC(=O)[C@@H](NC(=O)CNC(=O)[C@H](Cc1nnn[nH]1)NC(=O)[C@H](CO)NC(=O)[C@@H](N)Cc1c[nH]cn1)[C@@H](C)CC)[C@@H](C)O)C(=O)N[C@@H](C)C(=O)N[C@H](C(=O)N[C@@H](CCCCN)C(=O)N[C@@H](CCCCN)C(=O)N[C@@H](Cc1ccc(O)cc1)C(=O)N[C@@H](CC(C)C)C(=O)N[C@@H](C)C(=O)N[C@@H](C)C(=O)N[C@H](C(=O)N[C@@H](CC(C)C)C(N)=O)C(C)C)C(C)C", "note": "[Peptide 6] (H-HS[Ala(1H-tetrazol-5-yl)]GIFT[Ala(1H-tetrazol-5-yl)]SYSRYRKQ[Nle]AVKKYLAAVL-NH2)", "values": [
      {"measurement": "survival rate after correction for water, 60° C., 1-week storage", "value": 91.3, "unit": "%"},
      {"measurement": "survival rate after correction for water, 60° C., 2-week storage", "value": 82.4, "unit": "%"},
      {"measurement": "stability in aqueous solution, in words", "value": "drastically increased stability"}
    ]},
    {"smiles": "CC[C@H](C)[C@H](NC(=O)CNC(=O)[C@H](Cc1nnn[nH]1)NC(=O)[C@H](CO)NC(=O)[C@@H](N)Cc1c[nH]cn1)C(=O)N[C@@H](Cc1ccccc1)C(=O)N[C@H](C(=O)N[C@@H](Cc1nnn[nH]1)C(=O)N[C@@H](CO)C(=O)N[C@@H](Cc1ccc(O)cc1)C(=O)N[C@@H](CO)C(=O)N[C@@H](CCCNC(=N)N)C(=O)N[C@@H](Cc1ccc(O)cc1)C(=O)N[C@@H](CCCNC(=N)N)C(=O)N[C@@H](CCCCN)C(=O)N[C@@H](CCC(N)=O)C(=O)N[C@@H](CC(C)C)C(=O)N[C@@H](C)C(=O)N[C@H](C(=O)N[C@@H](CCCCN)C(=O)N[C@@H](CCCCN)C(=O)N[C@@H](Cc1ccc(O)cc1)C(=O)N[C@@H](CC(C)C)C(=O)N[C@@H](C)C(=O)N[C@@H](C)C(=O)N[C@H](C(=O)N[C@@H](CC(C)C)C(N)=O)C(C)C)C(C)C)[C@@H](C)O", "note": "[Peptide 7] (H-HS[Ala(1H-tetrazol-5-yl)]GIFT[Ala(1H-tetrazol-5-yl)]SYSRYRKQLAVKKYLAAVL-NH2)", "values": [
      {"measurement": "survival rate after correction for water, 60° C., 1-week storage", "value": 91.7, "unit": "%"},
      {"measurement": "survival rate after correction for water, 60° C., 2-week storage", "value": 84.8, "unit": "%"},
      {"measurement": "stability in aqueous solution, in words", "value": "drastically increased stability"}
    ]},
    {"smiles": "CCCC[C@H](NC(=O)[C@H](CCC(N)=O)NC(=O)[C@H](CCCCN)NC(=O)[C@H](CCCNC(=N)N)NC(=O)[C@H](Cc1ccc(O)cc1)NC(=O)[C@H](CCCNC(=N)N)NC(=O)[C@H](CO)NC(=O)[C@H](Cc1ccc(O)cc1)NC(=O)[C@H](CO)NC(=O)[C@H](Cc1nnn[nH]1)NC(=O)[C@@H](NC(=O)[C@H](Cc1ccccc1)NC(=O)[C@@H](NC(=O)CNC(=O)[C@H](Cc1nnn[nH]1)NC(=O)[C@H](CO)NC(=O)[C@H](Cc1c[nH]cn1)NC(C)=O)[C@@H](C)CC)[C@@H](C)O)C(=O)N[C@@H](C)C(=O)N[C@H](C(=O)N[C@@H](CCCCN)C(=O)N[C@@H](CCCCN)C(=O)N[C@@H](Cc1ccc(O)cc1)C(=O)N[C@@H](CC(C)C)C(=O)N[C@@H](C)C(=O)N[C@@H](C)C(=O)N[C@H](C(=O)N[C@@H](CC(C)C)C(N)=O)C(C)C)C(C)C", "note": "[Peptide 8] (Ac-HS[Ala(1H-tetrazol-5-yl)]GIFT[Ala(1H-tetrazol-5-yl)]SYSRYRKQ[Nle]AVKKYLAAVL-NH2)", "values": [
      {"measurement": "survival rate after correction for water, 60° C., 1-week storage", "value": 98.1, "unit": "%"},
      {"measurement": "survival rate after correction for water, 60° C., 2-week storage", "value": 92.9, "unit": "%"},
      {"measurement": "stability in aqueous solution, in words", "value": "further increased stability"}
    ]},
    {"smiles": "CC[C@H](C)[C@H](NC(=O)CNC(=O)[C@H](Cc1nnn[nH]1)NC(=O)[C@H](CO)NC(=O)[C@H](Cc1c[nH]cn1)NC(C)=O)C(=O)N[C@@H](Cc1ccccc1)C(=O)N[C@H](C(=O)N[C@@H](Cc1nnn[nH]1)C(=O)N[C@@H](CO)C(=O)N[C@@H](Cc1ccc(O)cc1)C(=O)N[C@@H](CO)C(=O)N[C@@H](CCCNC(=N)N)C(=O)N[C@@H](Cc1ccc(O)cc1)C(=O)N[C@@H](CCCNC(=N)N)C(=O)N[C@@H](CCCCN)C(=O)N[C@@H](CCC(N)=O)C(=O)N[C@@H](CC(C)C)C(=O)N[C@@H](C)C(=O)N[C@H](C(=O)N[C@@H](CCCCN)C(=O)N[C@@H](CCCCN)C(=O)N[C@@H](Cc1ccc(O)cc1)C(=O)N[C@@H](CC(C)C)C(=O)N[C@@H](C)C(=O)N[C@@H](C)C(=O)N[C@H](C(=O)N[C@@H](CC(C)C)C(N)=O)C(C)C)C(C)C)[C@@H](C)O", "note": "[Peptide 9] (Ac-HS[Ala(1H-tetrazol-5-yl)]GIFT[Ala(1H-tetrazol-5-yl)]SYSRYRKQLAVKKYLAAVL-NH2)", "values": [
      {"measurement": "survival rate after correction for water, 60° C., 1-week storage", "value": 98.4, "unit": "%"},
      {"measurement": "survival rate after correction for water, 60° C., 2-week storage", "value": 92.8, "unit": "%"},
      {"measurement": "stability in aqueous solution, in words", "value": "further increased stability"}
    ]},
    {"smiles": "CC[C@H](C)[C@H](NC(=O)CNC(=O)[C@H](Cc1nnn[nH]1)NC(=O)[C@H](CO)NC(=O)[C@H](Cc1c[nH]cn1)NS(C)(=O)=O)C(=O)N[C@@H](Cc1ccccc1)C(=O)N[C@H](C(=O)N[C@@H](Cc1nnn[nH]1)C(=O)N[C@@H](CO)C(=O)N[C@@H](Cc1ccc(O)cc1)C(=O)N[C@@H](CO)C(=O)N[C@@H](CCCNC(=N)N)C(=O)N[C@@H](Cc1ccc(O)cc1)C(=O)N[C@@H](CCCNC(=N)N)C(=O)N[C@@H](CCCCN)C(=O)N[C@@H](CCC(N)=O)C(=O)N[C@@H](CC(C)C)C(=O)N[C@@H](C)C(=O)N[C@H](C(=O)N[C@@H](CCCCN)C(=O)N[C@@H](CCCCN)C(=O)N[C@@H](Cc1ccc(O)cc1)C(=O)N[C@@H](CC(C)C)C(=O)N[C@@H](C)C(=O)N[C@@H](C)C(=O)N[C@H](C(=O)N[C@@H](CC(C)C)C(N)=O)C(C)C)C(C)C)[C@@H](C)O", "note": "[Peptide 12] (Ms-HS[Ala(1H-tetrazol-5-yl)]GIFT[Ala(1H-tetrazol-5-yl)]SYSRYRKQLAVKKYLAAVL-NH2)", "values": [
      {"measurement": "survival rate after correction for water, 60° C., 1-week storage", "value": 97.0, "unit": "%"},
      {"measurement": "survival rate after correction for water, 60° C., 2-week storage", "value": 93.6, "unit": "%"}
    ]},
    {"smiles": "CC[C@H](C)[C@H](NC(=O)CNC(=O)[C@H](Cc1nnn[nH]1)NC(=O)[C@H](CO)NC(=O)[C@H](Cc1c[nH]cn1)NC(C)=O)C(=O)N[C@@H](Cc1ccccc1)C(=O)N[C@H](C(=O)N[C@@H](Cc1nnn[nH]1)C(=O)N[C@@H](CO)C(=O)N[C@@H](Cc1ccc(O)cc1)C(=O)N[C@@H](CO)C(=O)N[C@@H](CCCNC(=N)N)C(=O)N[C@@H](Cc1ccc(O)cc1)C(=O)N[C@@H](CCCNC(=N)N)C(=O)N[C@@H](CCCCN)C(=O)N[C@@H](CCc1nnn[nH]1)C(=O)N[C@@H](CC(C)C)C(=O)N[C@@H](C)C(=O)N[C@H](C(=O)N[C@@H](CCCCN)C(=O)N[C@@H](CCCCN)C(=O)N[C@@H](Cc1ccc(O)cc1)C(=O)N[C@@H](CC(C)C)C(=O)N[C@@H](C)C(=O)N[C@@H](C)C(=O)N[C@H](C(=O)N[C@@H](CC(C)C)C(N)=O)C(C)C)C(C)C)[C@@H](C)O", "note": "[Peptide 13] (Ac-HS[Ala(1H-tetrazol-5-yl)]GIFT[Ala(1H-tetrazol-5-yl)]SYSRYRK[X1]LAVKKYLAAVL-NH2)", "values": [
      {"measurement": "survival rate after correction for water, 60° C., 1-week storage", "value": 97.4, "unit": "%"},
      {"measurement": "survival rate after correction for water, 60° C., 2-week storage", "value": 95.4, "unit": "%"}
    ]}
  ]
}
